# Experimental data published in publication PMC5908784, “Extracellular loops 2 and 3 of the calcitonin receptor selectively modify agonist binding and efficacy” (Biochemical Pharmacology, 2018).
# Substitutions are numbered along the chain they refer to. Where two headings read alike, the source gives them in different places. Where a SMILES comes first, the peptide text is derived from it. Bridges are numbered along the chain shown (N, C = ends).
# Assays:
# Test in all cases: IP1 accumulation
# Format in all cases: cell-based
# [1] = target: T1, hCTR L298A (Homo sapiens, UniProt P30988, L298A); conditions: for Emax: read-out: Emax (% WT), SEM
# T1 construct: c-Myc (N); expressed in transfected cells
# T1 sequence (P30988 25-474 L298A): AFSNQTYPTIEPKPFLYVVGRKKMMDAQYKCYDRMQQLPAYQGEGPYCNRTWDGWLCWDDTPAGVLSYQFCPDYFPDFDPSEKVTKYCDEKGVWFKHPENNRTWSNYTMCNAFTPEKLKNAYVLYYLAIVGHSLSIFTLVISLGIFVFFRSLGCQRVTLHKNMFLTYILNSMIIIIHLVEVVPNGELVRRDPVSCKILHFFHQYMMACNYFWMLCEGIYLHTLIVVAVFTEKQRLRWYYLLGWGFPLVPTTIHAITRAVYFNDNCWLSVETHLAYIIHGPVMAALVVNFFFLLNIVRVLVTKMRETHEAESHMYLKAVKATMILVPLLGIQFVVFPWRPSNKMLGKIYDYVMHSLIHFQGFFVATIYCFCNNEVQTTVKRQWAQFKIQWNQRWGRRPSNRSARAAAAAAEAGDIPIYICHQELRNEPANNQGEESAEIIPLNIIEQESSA
# In short: (§1)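 Concentration-response curves were fitted to a 3-parameter logistic model to estimate EC50 and Emax. Cells had been exposed to ligand for 60 min with LiCl, and lysate IP1 determined by HTRF, with normalization to 100 μM ATP.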
# [2] = target: T2, hCTR I279A (Homo sapiens, UniProt P30988, I279A); conditions: mean ± S.E.M.; for Emax: IP1 maximal response, SEM
# T2 construct: expressed in transfected cells
# T2 sequence (P30988 25-474 I279A): T1 sequence (P30988 25-474 L298A) with I255A, A274L
# In short: as §1
# [3] = target: T3, hCTR M376A (Homo sapiens, UniProt P30988, M376A); conditions: mean ± S.E.M.; for Emax: IP1 maximal response, SEM
# T3 construct: c-Myc (N); expressed in transfected cells
# T3 sequence (P30988 25-474 M376A): T1 sequence (P30988 25-474 L298A) with A274L, M352A
# In short: as §1
# [4] = target: T4, hCTR N365A (Homo sapiens, UniProt P30988, N365A); conditions: mean ± S.E.M.; for Emax: IP1 maximal response, SEM
# T4 construct: c-Myc (N); expressed in transfected cells
# T4 sequence (P30988 25-474 N365A): T1 sequence (P30988 25-474 L298A) with A274L, N341A
# In short: as §1
# [5] = target: T5, hCTR L291A (Homo sapiens, UniProt P30988, L291A); conditions: mean ± S.E.M.; for Emax: IP1 maximal response, SEM
# T5 construct: expressed in transfected cells
# T5 sequence (P30988 25-474 L291A): T1 sequence (P30988 25-474 L298A) with L267A, A274L
# In short: as §1
# [6] = IP1, CV1-FlpIn cells, 60 min, LiCl
SMILES,Emax [1],Emax [2],Emax [3],Emax [4],Emax [5],"EC50 ([1]; L298A, IP1, CV1-FlpIn cells, 60 min, LiCl, mean ± S.E.M.)","Emax ([1]; L298A, IP1 maximal response, mean ± S.E.M.)","EC50 [2, 6]","EC50 [3, 6]","EC50 [4, 6]","EC50 [5, 6]"
CC(C)C[C@H](NC(=O)[C@H](CCCCN)NC(=O)CNC(=O)[C@H](CC(C)C)NC(=O)[C@@H](NC(=O)[C@@H]1CSSC[C@H](N)C(=O)N[C@@H](CO)C(=O)N[C@@H](CC(N)=O)C(=O)N[C@@H](CC(C)C)C(=O)N[C@@H](CO)C(=O)N[C@@H]([C@@H](C)O)C(=O)N1)C(C)C)C(=O)N[C@@H](CO)C(=O)N[C@@H](CCC(N)=O)C(=O)N[C@@H](CCC(=O)O)C(=O)N[C@@H](CC(C)C)C(=O)N[C@@H](Cc1c[nH]cn1)C(=O)N[C@@H](CCCCN)C(=O)N[C@@H](CC(C)C)C(=O)N[C@@H](CCC(N)=O)C(=O)N[C@H](C(=O)N[C@@H](Cc1ccc(O)cc1)C(=O)N1CCC[C@H]1C(=O)N[C@@H](CCCNC(=N)N)C(=O)N[C@H](C(=O)N[C@@H](CC(N)=O)C(=O)N[C@H](C(=O)NCC(=O)N[C@@H](CO)C(=O)NCC(=O)N[C@H](C(=O)N1CCC[C@H]1C(N)=O)[C@@H](C)O)[C@@H](C)O)[C@@H](C)O)[C@@H](C)O [sCT],66 ± 5%,97 ± 7%,95 ± 4%,66 ± 4%,85 ± 4%,,,,,,
CC[C@H](C)[C@H](NC(=O)[C@H](C)NC(=O)[C@@H](NC(=O)[C@H](CCC(N)=O)NC(=O)[C@@H]1CCCN1C(=O)[C@H](Cc1ccccc1)NC(=O)[C@@H](NC(=O)[C@H](Cc1c[nH]cn1)NC(=O)[C@H](Cc1ccccc1)NC(=O)[C@H](CCCCN)NC(=O)[C@H](CC(N)=O)NC(=O)[C@H](Cc1ccccc1)NC(=O)[C@H](CC(=O)O)NC(=O)[C@H](CCC(N)=O)NC(=O)[C@@H](NC(=O)[C@H](Cc1ccc(O)cc1)NC(=O)[C@@H](NC(=O)CNC(=O)[C@H](CC(C)C)NC(=O)[C@H](CCSC)NC(=O)[C@@H]1CSSC[C@H](N)C(=O)NCC(=O)N[C@@H](CC(N)=O)C(=O)N[C@@H](CC(C)C)C(=O)N[C@@H](CO)C(=O)N[C@@H]([C@@H](C)O)C(=O)N1)[C@@H](C)O)[C@@H](C)O)[C@@H](C)O)[C@@H](C)O)C(=O)NCC(=O)N[C@H](C(=O)NCC(=O)N[C@@H](C)C(=O)N1CCC[C@H]1C(N)=O)C(C)C [hCT],58 ± 6%,79 ± 7%,52 ± 5%,81 ± 6%,71 ± 16%,,,,,,
CSCC[C@H](NC(=O)CNC(=O)[C@H](CO)NC(=O)[C@H](Cc1ccccc1)NC(=O)[C@H](CCCNC(=N)N)NC(=O)[C@H](Cc1c[nH]cn1)NC(=O)[C@H](Cc1ccccc1)NC(=O)[C@H](CC(N)=O)NC(=O)[C@H](CC(N)=O)NC(=O)[C@H](CC(C)C)NC(=O)[C@H](CC(N)=O)NC(=O)[C@H](CCCNC(=N)N)NC(=O)[C@H](Cc1c[nH]c2ccccc12)NC(=O)[C@H](Cc1ccc(O)cc1)NC(=O)[C@H](C)NC(=O)[C@H](CO)NC(=O)[C@H](CC(C)C)NC(=O)[C@@H](NC(=O)[C@@H]1CSSC[C@H](N)C(=O)N[C@@H](CO)C(=O)N[C@@H](CC(N)=O)C(=O)N[C@@H](CC(C)C)C(=O)N[C@@H](CO)C(=O)N[C@@H]([C@@H](C)O)C(=O)N1)C(C)C)C(=O)NCC(=O)N[C@@H](Cc1ccccc1)C(=O)NCC(=O)N1CCC[C@H]1C(=O)N[C@@H](CCC(=O)O)C(=O)N[C@H](C(=O)N1CCC[C@H]1C(N)=O)[C@@H](C)O [pCT] (H-CSNLSTCVLSAYWRNLNNFHRFSGMGFGPETP-NH2; disulfide 1-7),,116 ± 10%,47 ± 4%,68 ± 6%,67 ± 6%,4.07 nM,91 ± 10%,6.61 nM,5.62 nM,2.24 nM,1.62 nM
